From patent US4758558A, “N-(substituted)-[7-(2-cyanoacetamido)cephalosporanic]amide derivatives having antibiotic utility” (priority 1982, dated 1988)

How the values were obtained:
Escherichia coli = test: Effect on intestinal bacteria: number of Escherichia coli in feces; format: in vivo, ICR mice; conditions: after oral administration for 2 days, 500 mg/kg/day, female ICR mice; before: 6.4
Method: (b) Effect on the intestinal bacterial colonies:
[…] Each portion of the two kinds of the feces was cultured at 25° C. or 37° C. in a variety of culture medium for one to five days to see the state of Escherichia coli, Pseudomonas aeruginosa, a Streptococcus species, a Lactobacillus species, Lactobacillus bifidus and a Bacteroides species in the culture medium.
(§1) Effects of the present compound on intestinal bacteria
Each of the two fecal […] by weight of an anaerobic diluent (a phosphoric acid buffer solution) and was ground in a mortar, and 0.1 ml of the thus ground material was smeared on each of the following culture media for the following bacteria, and the thus inoculated culture media were incubated under the following conditions. Thereafter, the number of the following bacteria in each of the thus cultured media was determined.

Pseudomonas aeruginosa = test: Effect on intestinal bacteria: number of Pseudomonas aeruginosa in feces; format: in vivo, ICR mice; conditions: mouse, in vivo, po, 500 mg/kg/day
Method: as §1
(§2) Each of the present compounds respectively produced in Examples 1 to 18 was orally administered continuously for 2 days at a daily dose rate of 500 mg/kg body weight to each of five female ICR mice of each group after 6 weeks of their birth.
(§3) Each of the two fecal specimens respectively collected from each mouse before and after one day of the administration was diluted with 100 times by weight of an anaerobic diluent (a phosphoric acid buffer solution) and was ground in a mortar, and 0.1 ml of the thus ground material was smeared on each of the following culture media for the following bacteria, and the thus inoculated culture media were incubated under the following conditions. Thereafter, the number of the following bacteria in each of the thus cultured media was determined.
NAC agar 37° C., one day, […]

[1] = test system: a species of Streptococcus; test: Effect on intestinal bacteria: number of a sp. of Streptococcus in feces; format: in vivo, ICR mice; conditions: mouse, in vivo, po, 500 mg/kg/day
Method: (§4) (b) Effect on the intestinal bacterial colonies: […]
as §1, §2, §3
a species of Streptococcus
TATAC agar 37° C., one day, […]

[2] = test system: a species of Lactobacillus; test: Effect on intestinal bacteria: number of a sp. of Lactobacillus in feces; format: in vivo, ICR mice; conditions: mouse, in vivo, po, 500 mg/kg/day
Method: as §4, §1, §2, §3
a species of Lactobacillus
LBS agar 37° C., 5 days, […]

Lactobacillus bifidus = test: Effect on intestinal bacteria: number of Lactobacillus bifidus in feces; format: in vivo, ICR mice; conditions: mouse, in vivo, po, 500 mg/kg/day
Method: as §4, §1, §2, §3
BS agar 37° C., 5 days, […]

a species of Bacteroides = test: Effect on intestinal bacteria: number of a sp. of Bacteroides in feces; format: in vivo, ICR mice; conditions: mouse, in vivo, po, 500 mg/kg/day
Method: as §4, §1, §2, §3
a species of Bacteroides
NBGT agar 37° C., 5 days, […]

[3] = test system: Escherichia coli IFO 12734; test: Antibacterial activity in vitro (MIC) against Escherichia coli; format: cell-based; conditions: IFO12734, Mueller-Hinton agar, 18 to 24 hours, 37° C., read-out: MIC (minimum growth inhibiting concentration) against Escherichia coli
Method: (§5) (c) Anti-bacterial activity (in vitro):
(§6) Minimum concentration of the present compound inhibiting the growth of the following bacteria was determined according to the standard procedures of Japan Society of Chemotherapy:
Escherichia coli IFO 12734 and
(§7) Determination of the antibacterial activity of the present compound produced in Examples 1 to 18, respectively was carried out according to the standard procedures of Japan Society of Chemotherapy for finding MIC (the minimum concentration of a specimen to inhibit the growth of a species of bacteria).
(§8) A series of diluted solutions of each of the present compound were mixed with 9 times by weight of Mueller-Hinton's culture medium as the culture medium for determining the sensitivity of a bacterial species, and flat agar culture plates were prepared by using the thus obtained mixture.
(§9) Each of the liquids respectively containing one of the bacterial species shown in Table 2 was smeared onto each of the thus prepared flat agar culture plates with a platinum loop, in length of about 2 cm, and the thus treated plates were incubated for 18 to 24 hours at 37° C. Thereafter, by observing the growth state of each bacterial species on the cultured plates, the minimum concentration of each compound completely inhibiting the growth of each bacterial species was found.

[4] = test system: Staphylococcus aureus IAM 1011; test: Antibacterial activity in vitro (MIC) against Staphylococcus aureus; format: cell-based; conditions: IAM1011, Mueller-Hinton agar, 18 to 24 hours, 37° C., read-out: MIC (minimum growth inhibiting concentration) against Staphylococcus aureus
Method: as §5, §6
Staphylococcus aureus IAM 1011
as §7, §8, §9

| SMILES | Number of Escherichia coli after the administration (Escherichia coli) | Number of Pseudomonas aeruginosa after the administration (Pseudomonas aeruginosa) | Number of a sp. of Streptococcus after the administration [1] | Number of a sp. of Lactobacillus after the administration [2] | Number of Lactobacillus bifidus after the administration (Lactobacillus bifidus) | Number of a sp. of Bacterioides after the administration (a species of Bacteroides) | MIC [3] [µg/mL] | MIC [4] [µg/mL] |
| --- | --- | --- | --- | --- | --- | --- | --- | --- |
| COC(=O)Cc1ccc(NC(=O)C2=C(COC(C)=O)CSC3C(NC(=O)CC#N)C(=O)N23)cc1 (stereo not drawn) [Example 8, N-(4-carbomethoxymethylphenyl)-7-[(2-cyanoacetamido)cephalosporanic]amide] | 6.6 Log10 (number of bacteria/g feces) | < 3.0 Log10 (number of bacteria/g feces) | 6.6 Log10 (number of bacteria/g feces) | 9.1 Log10 (number of bacteria/g feces) | 8.4 Log10 (number of bacteria/g feces) | 8.9 Log10 (number of bacteria/g feces) | ≥ 100 | ≥ 100 |
| COC(=O)CNC(=O)c1ccc(NC(=O)C2=C(COC(C)=O)CSC3C(NC(=O)CC#N)C(=O)N23)cc1 (stereo not drawn) [Example 9, N-(4-carbomethoxymethylcarbamoylphenyl)-[7-(2-cyanoacetamido)cephalosporanic]amide] | 6.5 Log10 (number of bacteria/g feces) | < 3.0 Log10 (number of bacteria/g feces) | 6.7 Log10 (number of bacteria/g feces) | 8.9 Log10 (number of bacteria/g feces) | 8.4 Log10 (number of bacteria/g feces) | 8.5 Log10 (number of bacteria/g feces) | ≥ 100 | ≥ 100 |
| CC(=O)OCC1=C(C(=O)Nc2ccc(C(N)=O)cn2)N2C(=O)C(NC(=O)CC#N)C2SC1 (stereo not drawn) [Example 11, N-(nicotinic amido)-[7-(2-cyanoacetamido)cephalosporanic]amide] | 6.8 Log10 (number of bacteria/g feces) | < 3.0 Log10 (number of bacteria/g feces) | 6.7 Log10 (number of bacteria/g feces) | 9.1 Log10 (number of bacteria/g feces) | 8.2 Log10 (number of bacteria/g feces) | 8.6 Log10 (number of bacteria/g feces) | ≥ 100 | ≥ 100 |
| COC(=O)CNC(=O)c1ccc(NC(=O)C2=C(CSc3nnc(C)s3)CSC3C(NC(=O)Cn4cnnn4)C(=O)N23)cc1 (stereo not drawn) [Example 15, N-(4-carbomethoxymethylcarbamoylphenyl)-{7-(1-1H-tetrazolylacetamido)-3-[2-(5-methyl-1,3,4-thiadiazolyl)thiomethyl]-3-cephem-4-carboxylic}amide] | 6.5 Log10 (number of bacteria/g feces) | < 3.0 Log10 (number of bacteria/g feces) | 6.8 Log10 (number of bacteria/g feces) | 9.1 Log10 (number of bacteria/g feces) | 8.2 Log10 (number of bacteria/g feces) | 8.2 Log10 (number of bacteria/g feces) | ≥ 100 | ≥ 12.5 |
| Cc1nnc(SCC2=C(C(=O)NCCc3ccc(O)cc3)N3C(=O)C(NC(=O)Cn4cnnn4)C3SC2)s1 (stereo not drawn) [Example 17, N-[beta-(4-hydroxyphenyl)ethyl]-{7-(1-1H-tetrazolylacetamido)-3-[2-(5-methyl-1,3,4-thiadiazolyl)thiomethyl]-3-cephem-4-carboxylic}amide] | 6.4 Log10 (number of bacteria/g feces) | < 3.0 Log10 (number of bacteria/g feces) | 6.9 Log10 (number of bacteria/g feces) | 9.0 Log10 (number of bacteria/g feces) | 8.4 Log10 (number of bacteria/g feces) | 8.1 Log10 (number of bacteria/g feces) | ≥ 3.12 | ≥ 0.78 |

Now from value to compound:

| Number of Escherichia coli after the administration (Escherichia coli) | Number of Pseudomonas aeruginosa after the administration (Pseudomonas aeruginosa) | Number of a sp. of Streptococcus after the administration [1] | Number of a sp. of Lactobacillus after the administration [2] | Number of Lactobacillus bifidus after the administration (Lactobacillus bifidus) | Number of a sp. of Bacterioides after the administration (a species of Bacteroides) | MIC [3] [µg/mL] | MIC [4] [µg/mL] | SMILES |
| --- | --- | --- | --- | --- | --- | --- | --- | --- |
| 6.5 Log10 (number of bacteria/g feces) | < 3.0 Log10 (number of bacteria/g feces) | 6.7 Log10 (number of bacteria/g feces) | 8.9 Log10 (number of bacteria/g feces) | 8.2 Log10 (number of bacteria/g feces) | 8.8 Log10 (number of bacteria/g feces) | ≥ 25 | ≥ 1.56 | Cc1nnc(SCC2=C(C(=O)Nc3ccc(C(=O)O)cc3)N3C(=O)C(NC(=O)Cn4cnnn4)C3SC2)s1 (stereo not drawn) [Example 12, N-(4-carboxyphenyl)-{7-(1-1H-tetrazolylacetamido)-3-[2-(5-methyl-1,3,4-thiadiaziolyl)thiomethyl]-3-cephem-4-carboxylic}amide] |
| 6.4 Log10 (number of bacteria/g feces) | < 3.0 Log10 (number of bacteria/g feces) | 6.6 Log10 (number of bacteria/g feces) | 9.0 Log10 (number of bacteria/g feces) | 8.2 Log10 (number of bacteria/g feces) | 8.4 Log10 (number of bacteria/g feces) | ≥ 100 | ≥ 12.5 | COC(=O)Cc1ccc(NC(=O)C2=C(CSc3nnc(C)s3)CSC3C(NC(=O)Cn4cnnn4)C(=O)N23)cc1 (stereo not drawn) [Example 14, N-(4-carbomethoxymethylphenyl)-{7-(1-1H-tetrazolylacetamido)-3-[2-(5-methyl-1,3,4-thiadiazolyl)thiomethyl]-3-cephem-4-carboxylic}amide] |
| 6.5 Log10 (number of bacteria/g feces) | < 3.0 Log10 (number of bacteria/g feces) | 6.5 Log10 (number of bacteria/g feces) | 9.2 Log10 (number of bacteria/g feces) | 8.3 Log10 (number of bacteria/g feces) | 8.1 Log10 (number of bacteria/g feces) | ≥ 100 | ≥ 12.5 | Cc1ccc(NC(=O)C2=C(CSc3nnc(C)s3)CSC3C(NC(=O)Cn4cnnn4)C(=O)N23)cc1 (stereo not drawn) [Example 16, N-(4-methylphenyl)-{7-(1-1H-tetrazolylacetamido)-3-[2-(5-methyl-1,3,4-thiadiazolyl)thiomethyl]-3-cephem-4-carboxylic}amide] |
| 6.4 Log10 (number of bacteria/g feces) | < 3.0 Log10 (number of bacteria/g feces) | 6.9 Log10 (number of bacteria/g feces) | 9.0 Log10 (number of bacteria/g feces) | 8.4 Log10 (number of bacteria/g feces) | 8.1 Log10 (number of bacteria/g feces) | ≥ 100 | ≥ 12.5 | Cc1nnc(SCC2=C(C(=O)Nc3ccc(C(N)=O)cn3)N3C(=O)C(NC(=O)Cn4cnnn4)C3SC2)s1 (stereo not drawn) [Example 18, N-(6-nicotinic amide)-{7-(1-1h-tetrazolylacetamido)-3-[2-(5-methyl-1,3,4-thiadiazolyl)thiomethyl]-3-cepehem-4-carboxylic}amide] |
